# Source: US20140316007A1 (RICHTER GEDEON NYRT., priority 2011, published 2014)
# Like-named read-outs stand apart in the source and are kept apart here.
# Experiments:
# [1] = cited from earlier work
# [2] = spontaneous horizontal motor activity of mice (LABORAS); type: in vivo; conditions: 12-hour light phase, C57B16J mice
# Description: NMDA receptor antagonists are known to cause dose-dependent behavioral activation in rodents, which is manifested in increased locomotor activity (Sukhanov et al. Behav. Pharmacol. 15:263-271 2004). This behavior may correspond to side effects observed in the clinical practice, such as agitation and restlessness, which are rarely seen with memantine. We have studied the modulating effect of baclofen on the locomotor activity increasing effect of memantine when administered to mice in combination. Groups of male C57B16J mice (25-32 g; Wobe-Harlan, Hungary; 8-10 mice/group) were treated orally with 2 mg/kg baclofen, 2.5 mg/kg memantine or their combination or vehicle (distilled water) twice daily during the light phase of diurnal light-dark cycle. After one day of habituation, the activity of the animals was recorded continuously for 24 hours on the first and 14th day of treatment using an automated behavioral activity measurement system (LABORAS, Metris, Netherlands). However, only the data from the light phase (12 hours) are shown. The animals were housed individually during the whole experiment in their home cages, which enabled the activity recording as well. The mechanical vibrations and gravity related static signals evoked by the movement of the animals were transformed to an electrical signal by the system, and these recorded signals were evaluated off-line by a computer algorithm (Quinn et al. J. Neurosci. Methods 130:83-92 2003). The behavior of the mice was categorized by the software as locomotor activity, immobility, climbing and grooming. […] Statistical analysis was performed using ANOVA followed by Tukey's post hoc test. The statistical significance of effects of drug treatments was calculated compared to vehicle and also compared to other drug-treated groups.
# [3] = rotarod test in mice; conditions: male, NMRI, mouse, in vivo, po
# Description: The rotarod test is a widely used simple and objective method to detect the side effects affecting motor function in rodents. This method is also capable for sensitive detection of a central muscle relaxant effect, which is a pharmacological feature of both memantine and baclofen (Farkas et al. J. Pharmacol. Toxicol. Methods 52:264-273 2005). However, other CNS side effects (e.g. sleepiness, disturbances in coordination) also impair rotarod performance. Therefore this method was used to assess liability of the combination memantine and baclofen to produce unwanted side effects.
# Mice were placed on a rod rotating with a constant speed of 12 rpm. After training, i.e. after habituation to the rotarod three times for 120 seconds on the previous day, the mice are usually able to run on the rod for 120 seconds without falling down. Immediately before the treatment with the test compounds, the mice were tested and only those able to stay on the rod for 120 seconds were involved to the experiment. Test compounds were dissolved in distilled water (vehicle) and administered orally to groups of ten male NMRI mice (20-24 g). One group was treated with vehicle in each experimental session. […] We calculated the mean latency to fall in each group and the percent change relative to the latency in the vehicle group. […]
# [4] = targeted dose 60 mg/day, within 10 weeks, binge eating patients; cited from earlier work
# [5] = 30 mg/day, 12 weeks, cited from earlier work
# [6] = mouse diet-induced obesity (DIO) test, weight loss; type: in vivo; conditions: two weeks, obese C57B16 mice
# Protocol: The experiments were performed using a diet-induced obesity (DIO) test. The DIO test is a widely accepted animal model of human obesity well mimicking the development and course of the disease, its comorbidities as well as its response to pharmacological medications (Hariri and Thibault Nutr. Res. Rev. 23:270-299 2010). Young (22-25 g) male C57B16 mice were fed with high-fat diet (e.g. D12492, Research Diets Inc., New Brunswick, N.J., USA), thus these animals became obese compared to mice kept on a control diet. The body weights of control and obese mice were 31.84±0.89 and 45.74±0.78 g, respectively, in the first experiment (n=8 per group, mean±SEM). These values were 30.47±0.58 and 45.38±0.61 g (n=20 per group) in the second experiment, and 27.61±0.34 and 41.00±0.91 (n=8 per group) in the third experiment (Study 2). Then the animals were assigned to different groups and treated with different vehicles or test compounds. Test compounds were dissolved in water and administered per os twice daily in a volume of 10 ml/kg of body weight. The animals were weighed daily during the experiments. The percent weight loss of each animal compared the baseline body weight was calculated at the end of the two-week-long experiment. The average percent weight change of the vehicle group was subtracted from the percent weight change of each animal, thus the vehicle-corrected weight loss was calculated. The statistical evaluation of results included descriptive statistics (mean and standard error). Furthermore, statistical significance of differences between groups was evaluated using one-way or factorial ANOVA test followed by Duncan's post-hoc test. Interactions between different treatments (i.e. combination of drugs) were evaluated using factorial ANOVA test.
# Baclofen caused a body weight loss of 3.2%, which was statistically non-significant. […] The doses shown in FIG. 1 were administered per os twice daily. The results are shown as mean±SE of percent vehicle-corrected weight loss. There were no statistical differences between the other three groups. (Number of animals: n=8 per group, except the memantine group, where n=7.)
# We have also tested the combination of phentermine and baclofen. In the study investigating the effects of 2.5 mg/kg phentermine and 2 mg/kg baclofen, both drugs decreased the body weight moderately (by 5.4% and 3.6%, respectively). […] There was no significant difference between the groups (including the vehicle group as well). […] Data in FIG. 3 are presented as mean±SE of percent vehicle-corrected weight loss.
# [7] = dose gradually increased to 20 mg/day, 16 obese binge eater patients; cited from earlier work
# [8] = recommended dosing regimen; cited from earlier work
compound,measurement,setting,value
C[C@H]1CNCCc2ccc(Cl)cc21 [lorcaserin],weight loss relative to baseline,[1]; after 1-year-long treatment,5.8%
same,weight loss relative to baseline,[1]; at 12 weeks,3.5-4%
NCC(CC(=O)O)c1ccc(Cl)cc1 (racemic) [baclofen],horizontal motor activity vs vehicle,"[2]; 2 mg/kg baclofen orally twice daily, 14th day of treatment","neither baclofen alone, nor the combination altered the motor activity"
same,horizontal motor activity vs vehicle,"[2]; 2 mg/kg baclofen orally twice daily, first day of treatment","neither baclofen alone, nor the combination altered the motor activity"
same,ED50 at 60 min,[3],18.3 ± 3.3 mg/kg
same,mean body weight increase,[4],0.9 kg
same,mean body weight loss,[5]; 10 obese patients,1.7%
same,participants (out of 10) who lost more than 5% body weight,[5],one
same,vehicle-corrected body weight loss,"[6]; Study 1, first experiment, 2 mg/kg baclofen per os twice daily",3.2%
same,vehicle-corrected body weight loss,"[6]; Study 2, 2 mg/kg baclofen per os twice daily",3.6%
CC(C)(N)Cc1ccccc1 [phentermine],vehicle-corrected body weight loss,"[6]; Study 2, 2.5 mg/kg phentermine per os twice daily",5.4%
CC12CC3CC(C)(C1)CC(N)(C3)C2 [memantine],horizontal motor activity vs vehicle,"[2]; 2.5 mg/kg memantine orally twice daily, 14th day of treatment",statistically significantly (p<0.05) increased
same,horizontal motor activity vs vehicle,"[2]; 2.5 mg/kg memantine orally twice daily, first day of treatment",did not reach statistical significance
same,ED50 at 60 min,[3],16.1 ± 1.7 mg/kg
same,effect on binge episodes and body weight,[7],decreased the number of binge episodes but not the body weight
same,side effect rate: dizziness,[8],0.8%
same,side effect rate: nausea,[8],0.9%
same,side effect rate: restlessness,[8],1.3%
same,side effect rate: tiredness,[8],0.4%
same,vehicle-corrected body weight loss,"[6]; Study 1, first experiment, 2.5 mg/kg memantine per os twice daily",0.1%
